{"source": "paper PMC6231190", "about": "(ACS Medicinal Chemistry Letters, 2018)", "key": {"[1]": {"target": "WT p97 (Homo sapiens, UniProt P55072)", "sequence (P55072 whole entry)": "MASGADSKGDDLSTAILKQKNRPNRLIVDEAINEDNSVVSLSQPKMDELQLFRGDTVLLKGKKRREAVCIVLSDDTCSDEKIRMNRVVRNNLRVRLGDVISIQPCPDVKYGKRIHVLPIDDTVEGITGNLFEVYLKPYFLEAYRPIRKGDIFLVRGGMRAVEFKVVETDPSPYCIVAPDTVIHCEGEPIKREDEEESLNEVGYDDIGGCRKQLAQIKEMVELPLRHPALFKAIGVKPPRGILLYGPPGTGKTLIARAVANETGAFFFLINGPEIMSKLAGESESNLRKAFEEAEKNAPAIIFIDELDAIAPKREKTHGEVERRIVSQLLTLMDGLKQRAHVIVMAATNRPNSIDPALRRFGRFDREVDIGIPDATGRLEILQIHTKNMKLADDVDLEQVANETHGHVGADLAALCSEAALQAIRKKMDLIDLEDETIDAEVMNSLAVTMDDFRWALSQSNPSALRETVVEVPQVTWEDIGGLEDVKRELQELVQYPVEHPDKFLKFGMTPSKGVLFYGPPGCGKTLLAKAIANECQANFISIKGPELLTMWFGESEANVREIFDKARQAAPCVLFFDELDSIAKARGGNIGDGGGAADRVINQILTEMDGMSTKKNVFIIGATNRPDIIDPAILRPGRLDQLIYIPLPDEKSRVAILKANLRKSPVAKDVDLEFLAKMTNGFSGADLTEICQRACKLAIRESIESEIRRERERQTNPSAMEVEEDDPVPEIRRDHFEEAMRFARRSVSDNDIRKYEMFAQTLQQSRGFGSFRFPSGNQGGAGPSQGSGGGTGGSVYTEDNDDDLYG", "details": "for fold less potent than 17: p97 IC50 ratio vs 17; for p97 inhibition (in words): biochemical ATPase assay"}, "[2]": {"assay": "Aqueous solubility", "assay_type": "physicochemical", "details": "potassium phosphate buffer, pH 7.4, solubility (μM)"}, "[3]": {"assay": "Metabolic stability in mouse liver microsomes", "assay_type": "in vitro ADME", "details": "pH 7.4, MLM (t1/2, min)"}, "[4]": {"system": "NCI-60 cell line panel", "details": "range over lines; for pGI50, CNS tumor cell lines: NCI-60 CNS tumor subpanel; for pGI50, NSCL cancer cell lines: NCI-60 NSCL cancer subpanel; for pGI50, leukemia cell lines: NCI-60 leukemia subpanel; for pGI50, melanoma cell lines: NCI-60 melanoma subpanel; for pGI50, ovarian cancer cell lines: NCI-60 ovarian cancer subpanel; for pGI50, renal cancer cell lines: NCI-60 renal cancer subpanel"}, "[5]": {"system": "NCI-60 cell line panel", "assay": "cells", "details": "Homo sapiens, read-out: pGI50, prostate cancer cell lines (converted)"}, "[6]": {"system": "HeLa cell line with the ubiquitin fusion degradation reporter UbG76V-GFP", "assay": "UbG76V-GFP accumulation assay"}, "[7]": {"assay": "Metabolic stability in human liver microsomes", "assay_type": "in vitro ADME", "details": "pH 7.4, HLM (t1/2, min)"}, "[8]": {"details": "Homo sapiens, HeLa, 6 h, read-out: Ub^G76 V-GFP EC50 (μM), 6 h"}}, "note": "Read-outs that look alike come from different tables or passages of the source.", "data": [{"smiles": "c1cc(-c2cc3ccccc3[nH]2)cc(N2CCC(NCCN3CCNCC3)CC2)c1", "note": "[Compound 8]", "values": [{"measurement": "improvement in potency compared to compound 1", "setting": "[1]; p97 IC50 ratio vs 1", "value": "~3", "unit": "fold"}]}, {"smiles": "CC(C)N1CCN(CCCNC2CCN(c3cccc(-c4cc5ccccc5[nH]4)c3)CC2)CC1", "note": "[Compound 13]", "values": [{"measurement": "fold less potent than 2-carbon homologue 11", "setting": "[1]; p97 IC50 ratio vs 11", "value": "~2", "unit": "fold"}]}, {"smiles": "CN(C)CCNC1CCN(c2cccc(-c3cc4cc(F)ccc4[nH]3)c2)CC1", "note": "[Compound 15]", "values": [{"measurement": "fold less potent than 14", "setting": "[1]; p97 IC50 ratio vs 14", "value": "> 10", "unit": "fold"}]}, {"smiles": "CC(C)N1CCC(NC2CCN(c3cccc(-c4cc5cc(F)ccc5[nH]4)c3)CC2)CC1", "note": "[Compound 17]", "values": [{"measurement": "solubility", "setting": "[2]", "value": "> 300", "unit": "µM"}, {"measurement": "half-life at 10 µM", "setting": "[3]", "value": "> 270", "unit": "min"}, {"measurement": "pGI50, CNS tumor cell lines", "setting": "[4]", "value": "−5.7 to −5.8"}, {"measurement": "pGI50, NSCL cancer cell lines", "setting": "[4]", "value": "−5.7 to −6.0"}, {"measurement": "pGI50, colon cancer cell lines", "setting": "[4]; NCI-60 colon cancer subpanel", "value": "5.8 to −6.4"}, {"measurement": "pGI50, leukemia cell lines", "setting": "[4]", "value": "−5.7 to −6.7"}, {"measurement": "pGI50, melanoma cell lines", "setting": "[4]", "value": "−5.7 to −5.9"}, {"measurement": "pGI50, ovarian cancer cell lines", "setting": "[4]", "value": "−5.7 to −5.8"}, {"measurement": "pGI50, renal cancer cell lines", "setting": "[4]", "value": "−5.7 to −5.8"}, {"measurement": "GI50", "setting": "[5]", "value": 2000, "unit": "nM"}, {"measurement": "EC50", "setting": "[6]; [8]", "value": "> 40", "unit": "µM"}]}, {"smiles": "CC(C)N1CCC(N[C@H]2CC[C@H](c3cccc(-c4cc5cc(F)ccc5[nH]4)c3)CC2)CC1", "note": "[Compound 18]", "values": [{"measurement": "fold less potent than 17", "setting": "[1]", "value": "3–4 fold"}]}, {"smiles": "CC(C)N1CCC(N[C@H]2CC[C@@H](c3cccc(-c4cc5cc(F)ccc5[nH]4)c3)CC2)CC1", "note": "[Compound 19]", "values": [{"measurement": "fold less potent than 17", "setting": "[1]", "value": "> 100", "unit": "fold"}, {"measurement": "fold less potent compared to the trans-isomer", "setting": "[1]; p97 IC50 ratio vs 18", "value": "> 20", "unit": "fold"}]}, {"smiles": "CC(C)N1CCC2(CCN(c3cccc(-c4cc5cc(F)ccc5[nH]4)c3)CC2)CC1", "note": "[Compound 20]", "values": [{"measurement": "p97 inhibition (in words)", "setting": "[1]", "value": "micromolar range"}]}, {"smiles": "CC(C)N1CCN(C2CCN(c3cccc(-c4cc5cc(F)ccc5[nH]4)c3)CC2)CC1", "note": "[Compound 21]", "values": [{"measurement": "p97 inhibition (in words)", "setting": "[1]", "value": "micromolar range"}]}, {"smiles": "CC(C)N1CC2CN(c3cccc(-c4cc5cc(F)ccc5[nH]4)c3)CC2C1", "note": "(centres unmarked) [Compound 22]", "values": [{"measurement": "p97 inhibition (in words)", "setting": "[1]", "value": "micromolar range"}]}, {"smiles": "CN1CCN(C2(CNC3CCN(c4cccc(-c5cc6cc(F)ccc6[nH]5)c4)CC3)CCC2)CC1", "note": "[Compound 23]", "values": [{"measurement": "solubility", "setting": "[2]", "value": "> 300", "unit": "µM"}, {"measurement": "half-life at 10 µM", "setting": "[7]", "value": "> 270", "unit": "min"}, {"measurement": "half-life at 10 µM", "setting": "[3]", "value": "> 270", "unit": "min"}, {"measurement": "fold more potent than the N-iPr analog (24)", "setting": "[1]; p97 IC50 ratio vs 24", "value": 5, "unit": "fold"}, {"measurement": "pGI50, CNS tumor cell lines", "setting": "[4]", "value": "−5.7 to −5.8"}, {"measurement": "pGI50, NSCL cancer cell lines", "setting": "[4]", "value": "−5.7 to −5.8"}, {"measurement": "pGI50, leukemia cell lines", "setting": "[4]", "value": "−5.7 to −6.7"}, {"measurement": "pGI50, melanoma cell lines", "setting": "[4]", "value": "−5.7 to −6.5"}, {"measurement": "pGI50, ovarian cancer cell lines", "setting": "[4]", "value": "−5.7 to −5.8"}, {"measurement": "pGI50, renal cancer cell lines", "setting": "[4]", "value": "−5.7 to −5.8"}, {"measurement": "EC50", "setting": "[6]; [8]", "value": "> 40", "unit": "µM"}]}, {"smiles": "Cc1cc(OCc2nnc(SC3CCCC3)n2-c2cccnc2)ccc1-c1ccc(S(C)(=O)=O)cc1", "note": "[NMS-873, reference compound]", "values": [{"measurement": "EC50", "setting": "[6]; read-out: Ub^G76 V-GFP EC50 (μM), 1 h", "value": 1.4, "unit": "µM"}]}]}
